Measurements reported in patent US4487937A, “2-(2-Substitutedamino-4-thiazolyl)-2-(1-methoxy-isopropoxyimino)-acetic acids” (Roussel Uclaf, priority 1977, dated 1984).
Where two headings read alike, the source gives them in different places.

Columns and labels:
Assay in all cases: In vitro MIC, dilution of a liquid medium
Type in all cases: cell-based
[1] = system: Escherichia Coli Sensitive Tetracycline ATCC 9 637; settings: read-out: minimum inhibiting concentration (MIC)
Description: (§1) The method used was a dilution of a liquid medium where a series of tubes received the same quantity of a sterile nutritive media and increasing doses of the test compounds were placed therein. Then each tube was seeded with a bacterial strain and was incubated for 24 or 48 hours at 37° C. in an oven. The increasing inhibition was determined by transillumination to determine the minimum inhibiting concentration (MIC in μg/ml) and the results are reported in the following Tables.

[2] = system: Staphylococcus aureus ATCC 6 538 Penicillin-Sensitive; settings: 37° C., read-out: minimum inhibiting concentration (MIC)
Description: as §1

[3] = system: Proteus mirabilis (indol -) A 235; settings: 37° C., read-out: minimum inhibiting concentration (MIC)
Description: as §1

Providencia Du 48 = settings: 37° C., read-out: minimum inhibiting concentration (MIC)
Description: as §1

[4] = system: Staphylococcus aureus exp. n° 54 146; settings: 37° C., read-out: minimum inhibiting concentration (MIC)
Description: as §1

[5] = system: Escherichia Coli Resistant Tetracycline ATCC 11 303; settings: 37° C., read-out: minimum inhibiting concentration (MIC)
Description: as §1

[6] = system: Klebsiella pneumoniae Exp. 52 145; settings: read-out: minimum inhibiting concentration (MIC)
Description: as §1

[7] = system: Bacillus subtilis ATCC 6 633; settings: read-out: minimum inhibiting concentration (MIC)
Description: as §1

[8] = system: Staphylococcus aureus UC 1 128 Penicillin-resistant; settings: 37° C., read-out: minimum inhibiting concentration (MIC)
Description: as §1

[9] = system: Streptococcus faecalis 5 432; settings: Enterococcus faecalis, 5432, 37° C., read-out: minimum inhibiting concentration (MIC)
Description: as §1

[10] = system: Klebsiella pneumoniae 2 536 Resistant Gentamicine; settings: read-out: minimum inhibiting concentration (MIC)
Description: as §1

[11] = system: Escherichia Coli Resistant Gentamicine, Tobramycine R 55 123 D; settings: read-out: minimum inhibiting concentration (MIC)
Description: as §1

[12] = system: Serratia Resistant Gentamicine 2 532; settings: 37° C., read-out: minimum inhibiting concentration (MIC)
Description: as §1

[13] = system: Streptococcus faecalis 99 F 74; settings: Enterococcus faecalis, 99F74, 37° C., read-out: minimum inhibiting concentration (MIC)
Description: as §1

[14] = system: Streptococcus pyogenes A 561; settings: 37° C., read-out: minimum inhibiting concentration (MIC)
Description: as §1

[15] = system: Salmonella typhimurium 420; settings: Salmonella enterica, read-out: minimum inhibiting concentration (MIC)
Description: as §1

Enterobacter cloacae 681 = settings: 37° C., read-out: minimum inhibiting concentration (MIC)
Description: as §1

[16] = system: Escherichia Coli Exp. TO26 B6; settings: 37° C., read-out: minimum inhibiting concentration (MIC)
Description: as §1

[17] = system: Proteus vulgaris (indol +) A 232; settings: read-out: minimum inhibiting concentration (MIC)
Description: as §1

Measured: MIC

CC(=O)OCC1=C(C(=O)O)N2C(=O)C(NC(=O)/C(=N\OCC#N)c3csc(N)n3)C2SC1 (centres unmarked) [Example 8, sodium 7-[2-(2-amino-4-thiazolyl)-2-cyano-methoxyimino-acetamido]-3-acetoxymethyl-ceph-3-eme-4-carboxylate]
3 µg/mL: [4]; 48 H | [8]; UC1, 48 H | [9]; 24 H | Enterobacter cloacae 681; 24 H
0.05 µg/mL: [3]; 24 H | [3]; 48 H | [5]; ATCC11, 24 H | [5]; ATCC11, 48 H | [6]; EXP.52145, 24 H, 37° C. | [6]; EXP.52145, 48 H, 37° C. | [14]; A561, 24 H | [14]; A561, 48 H
> 40 µg/mL: [13]; 48 H
0.5 µg/mL: [1]; ATCC9, 24 h | [1]; ATCC9, 48 h | [7]; ATCC6, 24 h | [15]; 24 h | [15]; 48 h
0.2 µg/mL: [11]; 24 h | [11]; 48 h | [16]; 24 H | [16]; 48 H
20 µg/mL: [9]; 48 H
1 µg/mL: [7]; ATCC6, 48 H, 37° C. | [10]; 24 H, 37° C. | [10]; 48 H, 37° C.
2 µg/mL: [2]; ATCC6, 24 H | [2]; ATCC6, 48 H | [4]; 24 H | [8]; UC1, 24 H | [12]; 24 H | [12]; 48 H
10 µg/mL: [13]; 24 H
5 µg/mL: Providencia Du 48; DU48, 24 H | Providencia Du 48; DU48, 48 H | Enterobacter cloacae 681; 48 H

CC(=O)OCC1=C(C(=O)O)N2C(=O)C(NC(=O)/C(=N\OC(C)(C)C(=O)O)c3csc(N)n3)[C@H]2SC1 (some centres unmarked) [Example 14, disodium 7-[2-(2-amino-4-thiazolyl)-2-(1-carboxy-1-methylethoxyimino)-acetamido]-3-acetoxymethyl-ceph-3-eme-4-carboxylate]
> 40 µg/mL: [4]; 48 H | [7]; ATCC6, 48 H, 37° C. | [9]; 24 H | [9]; 48 H | [13]; 24 H | [13]; 48 H | Enterobacter cloacae 681; 48 H
2 µg/mL: Providencia Du 48; DU48, 24 H
20 µg/mL: [2]; ATCC6, 24 H | [2]; ATCC6, 48 H | [4]; 24 H | [8]; UC1, 24 H
0.1 µg/mL: [17]; 24 H, 37° C.
3 µg/mL: Providencia Du 48; DU48, 48 H | [17]; 48 H, 37° C.
0.2 µg/mL: [5]; ATCC11, 24 H | [5]; ATCC11, 48 H
1 µg/mL: [6]; EXP.52145, 24 H, 37° C. | [6]; EXP.52145, 48 H, 37° C. | [10]; 24 H, 37° C. | [10]; 48 H, 37° C. | [12]; 24 H | [12]; 48 H | [14]; A561, 24 H | [14]; A561, 48 H | [15]; 24 H, 37° C. | [15]; 48 H, 37° C.
0.05 µg/mL: [3]; 24 H | [3]; 48 H
10 µg/mL: [7]; ATCC6, 24 H, 37° C.
40 µg/mL: [8]; UC1, 48 H | Enterobacter cloacae 681; 24 H
0.5 µg/mL: [1]; ATCC9, 24 h | [1]; ATCC9, 48 h | [11]; 24 h | [11]; 48 h | [16]; 24 H | [16]; 48 H

CC(=O)OCC1=C(C(=O)O)N2C(=O)C(NC(=O)/C(=N\OCC(=O)O)c3csc(N)n3)[C@H]2SC1 (some centres unmarked) [Example 5, disodium 7-[2-(2-amino-4-thiazolyl)-2-hydroxycarbonylmethoxyimino-acetamido]-3-acetoxymethyl-ceph-3-eme-4-carboxylate]
1 µg/mL: Providencia Du 48; DU48, 24 H | [12]; 24 H
0.5 µg/mL: [14]; A561, 24 H | [14]; A561, 48 H | [15]; 48 H, 37° C.
≤ 0.02 µg/mL: [3]; 24 H | [3]; 48 H
20 µg/mL: [4]; 24 H | [4]; 48 H | [8]; UC1, 24 H | [8]; UC1, 48 H | [9]; 24 H | Enterobacter cloacae 681; 48 H
2 µg/mL: Providencia Du 48; DU48, 48 H | [12]; 48 H
> 40 µg/mL: [9]; 48 H | [13]; 24 H | [13]; 48 H
0.05 µg/mL: [5]; ATCC11, 24 H | [5]; ATCC11, 48 H
10 µg/mL: [2]; ATCC6, 24 H | [2]; ATCC6, 48 H
5 µg/mL: Enterobacter cloacae 681; 24 H
0.2 µg/mL: [1]; ATCC9, 24 h | [1]; ATCC9, 48 h | [15]; 24 h
0.1 µg/mL: [6]; EXP.52145, 24 h | [6]; EXP.52145, 48 h | [10]; 24 h | [10]; 48 h | [11]; 24 h | [11]; 48 h | [17]; 24 h | [17]; 48 h | [16]; 24 H | [16]; 48 H
